Reference: patent US7183252B2, “Indole peptidomimetics as thrombin receptor antagonists” (Ortho-McNeil Pharmaceutical, Inc., priority 1999, dated 2007)
pIC50: −log10 of the molar value. Where two headings read alike, the source gives them in different places.

Assays:
[1] = biological target: T1, thrombin receptor (PAR-1) (Homo sapiens, UniProt P25116); assay: In vitro thrombin receptor binding assay (CHRF membranes); conditions: tritiated 721-40 radioligand, read-out: Bndg IC50 (Thrombin receptor binding)
T1 construct: CHRF membranes (Jones, Biochim. Biophys. Acta 1992, 1136, 272) are thawed from −70° C; endogenous in cells; host or cells: CHRF cell membranes
T1 sequence (P25116 22-425): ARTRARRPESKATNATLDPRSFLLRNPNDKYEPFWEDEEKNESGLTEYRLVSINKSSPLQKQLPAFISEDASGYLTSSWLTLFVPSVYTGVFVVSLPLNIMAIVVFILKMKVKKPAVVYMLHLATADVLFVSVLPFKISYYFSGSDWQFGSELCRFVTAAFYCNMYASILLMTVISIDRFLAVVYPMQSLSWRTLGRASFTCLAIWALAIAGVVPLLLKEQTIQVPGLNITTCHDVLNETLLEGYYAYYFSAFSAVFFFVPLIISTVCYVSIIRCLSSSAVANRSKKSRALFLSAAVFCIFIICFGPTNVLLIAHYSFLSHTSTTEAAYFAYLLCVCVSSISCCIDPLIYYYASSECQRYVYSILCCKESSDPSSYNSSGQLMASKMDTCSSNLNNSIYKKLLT
Method: In Vitro Thrombin Receptor Binding Assay
CHRF membranes (Jones, Biochim. Biophys. Acta 1992, 1136, 272) are thawed from −70° C., centrifuged at maximum speed for 5 min, washed twice with binding buffer (50 mM HEPES containing 5 mM MgCl2 and 0.1% BSA), and re-suspended in binding buffer (25 μg/[…]). 100 μL of membranes are added to the 24-Wallac plates and delivered to the Tomtech apparatus. In a typical experiment, 6 μL of samples (from a 125 μg/mL intermediary plate, 20% DMSO) and 44 μL buffer are delivered to the plates (final conc. of compounds is 3.7 μg/mL, 0.6% DMSO). Similarly, 6 μL 20% DMSO and 44 μL buffer are delivered to both column 1 (NSB) and column 12 (TB). 10 μL Ser-pFPhe-Har-Leu-Har-Lys-Tyr-NH2 (721–40; 500 μM in deionized water) is added to column 1. 50 μL tritiated 721–40 (specific activity 46 Ci/mmol) is added to all the wells. The plates are mixed well for 20 seconds, incubated for 30 min,and then harvested with 10 mM HEPES/138 mM NaCl using the Skatron harvester. The filters (GF/C Brandel FPXLR 296) are presoaked 3 h in 0.5% polyethylenimine in HEPES/0.1M N-acetylglucosamine) are set in saran wrap and dried for 3 min in the microwave, and placed in sample bags (Wallac 1450-432). 4.5 mL scintillation fluid (Wallac, Betaplate Scint 1205-440) is added. The bags are sealed, placed in filter cassettes (Wallac 1450-104), and analyzed on the microbeta counter.
(§1) Table 7 contains IC50 values (μM) of the compounds in a thrombin receptor binding assay, and IC50 values (μM) against platelet aggregation stimulated by thrombin.

gel-filtered platelets = assay: In vitro inhibition of thrombin-induced gel-filtered platelet aggregation; type: cell-based; conditions: human gel-filtered platelets, agonist thrombin 50 μL of 1 unit/mL, read-out: Thrmb IC50 (Thrombin-induced aggregation of gel-filtered platelets)
Method: In Vitro Inhibition of Thrombin-Induced Gel-Filtered Platelet Aggregation Assay
The percentage of platelet aggregation is calculated as an increase in light transmission of compound-treated platelet concentrate vs. control-treated platelet concentrate. Human blood is obtained from drug free, normal donors in tubes containing 0.13M sodium citrate. Platelet rich plasma (PRP) is collected by centrifugation of whole blood at 200×g for 10 min at 25° C. The PRP (5 mL) is gel filtered through Sepharose 2B (bed volume 50 mL), and the platelet count is adjusted to 2×10^7 platelets per sample. The following constituents are added to a siliconized cuvette: concentrated platelet filtrate and Tyrode's buffer (0.14M NaCl, 0.0027M KCl, 0.012M NaHCO3, 0.76 mM Na2HPO4, 0.0055M glucose, 2 mg/mL BSA and 5.0 mM HEPES @ pH 7.4) in an amount equal to 350 μL 50 μL of 20 mM calcium and 50 μL of the test compound. Aggregation is monitored in a BIODATA aggregometer for the 3 min following the addition of agonist (thrombin 50 μL of 1 unit/mL).
as §1

Row | Compound | pIC50 [1] | pIC50 (gel-filtered platelets; Platelet) | pIC50 (gel-filtered platelets)
1 | CN(C)CCNC(=O)[C@H](CCCN)NC(=O)[C@H](Cc1ccc(F)c(F)c1)NC(=O)Nc1ccc2c(CN3CCCC3)cn(Cc3c(Cl)cccc3Cl)c2c1 [Compound 126] | 5.82 | 6.34 | 
2 | NCCC[C@H](NC(=O)[C@H](Cc1ccc(F)c(F)c1)NC(=O)Nc1ccc2c(CN3CCCC3)cn(Cc3c(Cl)cccc3Cl)c2c1)C(=O)NCc1cccs1 [Compound 113] | 6.07 | 6.14 | 
3 | CCN(CC)Cc1cn(CCc2ccc(F)cc2)c2cc(NC(=O)N[C@@H](Cc3ccc(F)c(F)c3)C(=O)N[C@@H](CCCNC(=N)N)C(=O)NCc3ccccc3)ccc12 [Compound 76] | 6.70 | 5.96 | 
4 | CCOc1ccc(C[C@H](NC(=O)Nc2ccc3c(CN4CCCC4)cn(Cc4cccc(C)c4)c3c2)C(=O)N[C@@H](CCCNC(=N)N)C(=O)NCc2ccccc2)cc1 [Compound 42] | 5.70 | 4.61 | 
5 | NCCNC(=O)[C@@H](Cc1cccs1)NC(=O)[C@@H](Cc1ccc(Cl)cc1)NC(=O)c1ccc2c(CN3CCCC3)cn(Cc3c(Cl)cccc3Cl)c2c1 [Compound 178] | 5.00 | 4.39 | 
6 | NCCC[C@H](NC(=O)[C@H](Cc1ccc(F)c(F)c1)NC(=O)Nc1ccc2c(CN3CCCC3)cn(Cc3c(Cl)cccc3Cl)c2c1)C(=O)NCc1ccncc1 [Compound 98] | 5.64 | 5.74 | 
7 | O=C(Nc1ccc2c(CN3CCCC3)cn(Cc3c(Cl)cccc3Cl)c2c1)N[C@@H](Cc1ccc(F)c(F)c1)C(=O)N[C@@H](Cc1ccncc1)C(=O)NCc1ccccc1 [Compound 105] | 5.12 | 6.19 | 
8 | COc1ccc(C[C@H](NC(=O)Nc2ccc3c(CN4CCC4)cn(Cc4ccc(F)cc4)c3c2)C(=O)N[C@@H](CCCNC(=N)N)C(=O)NCc2ccccc2)cc1 [Compound 44] | 5.48 | 5.01 | 
9 | NC(N)=NCCC[C@H](NC(=O)[C@H](Cc1ccc(I)cc1)NC(=O)Nc1ccc2c(CN3CCCCC3)cn(Cc3c(Cl)cccc3Cl)c2c1)C(=O)NCc1ccccc1 [Compound 85] | 5.80 | 5.32 | 
10 | COc1ccc(C[C@H](NC(=O)Nc2ccc3c(CN4CCCC4)cn(Cc4cccc(F)c4)c3c2)C(=O)N[C@@H](CCCNC(=N)N)C(=O)NCc2ccccc2)cc1 [Compound 6] | 5.18 | 5.46 | 
11 | N#Cc1ccc(C[C@H](NC(=O)Nc2ccc3c(CN4CCCC4)cn(Cc4c(Cl)cccc4Cl)c3c2)C(=O)N[C@@H](CCCNC(=N)N)C(=O)NCc2ccccc2)cc1 [Compound 52] | 5.28 | 6.32 | 
12 | CC(C)[C@H](NC(=O)[C@H](Cc1ccc(Cl)cc1)NC(=O)Nc1ccc2c(CN3CCCC3)cn(Cc3c(Cl)cccc3Cl)c2c1)C(=O)NCCN [Compound 148] | 6.85 | 5.85 | 
13 | NCCC[C@H](NC(=O)[C@H](Cc1ccc(Cl)cc1)NC(=O)Nc1ccc2c(CN3CCCC3)cn(Cc3c(Cl)cccc3Cl)c2c1)C(=O)NCc1ccccc1Cl [Compound 99] | 5.85 | 6.13 | 
14 | N=C(N)NCCC[C@H](NC(=O)[C@H](Cc1ccc(F)c(F)c1)NC(=O)Nc1ccc2c(CN3CCCC3)cn(Cc3ccccc3Cl)c2c1)C(=O)NCc1ccccc1 [Compound 55] | 4.95 | 6.47 | 
15 | CCN(Cc1ccncc1)C(=O)[C@H](CCCN)NC(=O)[C@H](Cc1ccc(F)c(F)c1)NC(=O)Nc1ccc2c(CN3CCCC3)cn(Cc3c(Cl)cccc3Cl)c2c1 [Compound 110] | 5.54 | 5.43 | 
16 | NCCNC(=O)[C@@H](Cc1ccncc1)NC(=O)[C@@H](Cc1ccc(F)c(F)c1)NC(=O)c1ccc2c(CN3CCCC3)cn(Cc3c(Cl)cccc3Cl)c2c1 [Compound 176] | 4.36 |  | 4.34

Row | Compound | pIC50 [1] | pIC50 (gel-filtered platelets; Platelet) | pIC50 (gel-filtered platelets)
17 | CC(=N)NCCNC(=O)[C@H](Cc1ccncc1)NC(=O)[C@H](Cc1ccc(Cl)cc1)NC(=O)Nc1ccc2c(CN3CCCC3)cn(Cc3c(Cl)cccc3Cl)c2c1 [Compound 139] | 6.00 | 6.48 | 
18 | NCCNC(=O)[C@H](Cc1cccs1)NC(=O)[C@H](Cc1ccc(Cl)cc1)NC(=O)c1ccc2c(CN3CCCC3)cn(Cc3c(Cl)cccc3Cl)c2c1 [Compound 177] | 6.21 | 5.36 | 
19 | N=C(N)NCCC[C@H](NC(=O)[C@@H]1CCCN1C(=O)Nc1ccc2c(CN3CCCC3)cn(Cc3c(Cl)cccc3Cl)c2c1)C(=O)NCc1ccccc1 [Compound 107] | 5.10 | 5.74 | 
20 | NCCNC(=O)[C@H](Cc1cccs1)NC(=O)[C@H](Cc1ccc(Cl)cc1)NC(=O)Nc1ccc2c(CN3CCCC3)cn(Cc3c(Cl)cccc3Cl)c2c1 [Compound 136] | 5.96 | 6.26 | 
21 | COc1ccc(C[C@H](NC(=O)Nc2ccc3c(CN4CCCC4)cn(Cc4ccc(C(F)(F)F)cc4)c3c2)C(=O)N[C@@H](CCCNC(=N)N)C(=O)NCc2ccccc2)cc1 [Compound 18] | 5.43 | 4.85 | 
22 | C=CCOC(=O)[C@H](CCCN)NC(=O)[C@H](Cc1ccc(F)c(F)c1)NC(=O)Nc1ccc2c(CN3CCCC3)cn(Cc3c(Cl)cccc3Cl)c2c1 [Compound 93] | 6.30 | 6.13 | 
23 | COCC[C@H](NC(=O)[C@H](Cc1ccc(F)c(F)c1)NC(=O)Nc1ccc2c(CN3CCCC3)cn(Cc3c(Cl)cccc3Cl)c2c1)C(=O)NCCN [Compound 156] | 7.40 | 6.22 | 
24 | Cc1ccccc1Cn1cc(CN2CCCC2)c2ccc(NC(=O)N[C@@H](Cc3cccnc3)C(=O)N[C@@H](CCCNC(=N)N)C(=O)NCc3ccccc3)cc21 [Compound 31] | 5.08 | < 5.00 | 
25 | NCCC[C@H](NC(=O)[C@H](Cc1ccc(F)c(F)c1)NC(=O)Nc1ccc2c(CN3CCCC3)cn(Cc3c(Cl)cccc3Cl)c2c1)C(=O)NCCc1ccncc1 [Compound 109] | 6.21 | 6.08 | 
26 | Cc1cccc(Cn2cc(CN3CCCC3)c3ccc(NC(=O)N[C@@H](Cc4ccc(F)c(F)c4)C(=O)N[C@@H](Cc4cccs4)C(=O)NCCCN)cc32)c1 [Compound 153] | 4.57 | 6.10 | 
27 | COc1ccc(C[C@H](NC(=O)Nc2ccc3c(CN4CCCC4)cn(Cc4ccc(C#N)cc4)c3c2)C(=O)N[C@@H](CCCNC(=N)N)C(=O)NCc2ccccc2)cc1 [Compound 13] | 5.35 | 4.79 | 
28 | Cc1ccccc1Cn1c(Cl)c(CN2CCCC2)c2ccc(NC(=O)N[C@@H](Cc3ccc(F)c(F)c3)C(=O)N[C@@H](CCCNC(=N)N)C(=O)NCc3ccccc3)cc21 [Compound 172] | 5.17 | < 5.00 | 
29 | N=C(N)NCCC[C@H](NC(=O)[C@H](Cc1ccc(F)c(F)c1)NC(=O)Nc1ccc2c(CN3CCCC3)cn(Cc3ccc(F)cc3)c2c1)C(=O)NC(c1ccccc1)c1ccccc1 [Compound 60] | 5.55 | 6.03 | 
30 | N=C(N)NCCC[C@H](NC(=O)[C@H](CC1CCCCC1)NC(=O)Nc1ccc2c(CN3CCCC3)cn(Cc3ccc(F)cc3)c2c1)C(=O)NCc1ccccc1 [Compound 25] |  |  | 4.43
31 | NCCC(NC(=O)C(Cc1ccc(F)c(F)c1)NC(=O)Nc1ccc2c(CN3CCCC3)cn(Cc3c(Cl)cccc3Cl)c2c1)C(=O)NC(CO)c1ccccc1 (stereo not shown) [Compound 161] |  |  | 6.28
32 | COC(=O)C(NC(=O)C(CCN)NC(=O)C(Cc1ccc(F)c(F)c1)NC(=O)Nc1ccc2c(CN3CCCC3)cn(Cc3c(Cl)cccc3Cl)c2c1)c1ccccc1 (stereo not shown) [Compound 160] |  |  | 6.22
